The record followed here is patent US4223039A, “Therapeutically useful N-phenylaniline derivatives” (priority 1978, dated 1980).

The nature of data set [1]: Acute toxicity in mice after oral administration. The settings on record: mouse, in vivo, suspended in 10% gum arabic, survivors checked at 15 days. The procedure:
The compounds have been administered at increasing doses (in geometric progression) to groups of five .female. SWISS, EOPS, NMRI/Han mice originating from the breeding of EVIC CEBA and of mean weight 25 g.
For oral administration, they are suspended in a 10% gum arabic solution.
The LD 50s are calculated by the method of Behrens (B) and Karber (C), (Arch. Exp. Path. Pharmakol. 1935, 177, 379-388).
The number of animals surviving in the different groups is finally checked 15 days after administration of the compounds.

Data set [2] deals with painful syndrome provoked in mice by phenylbenzoquinone. Nature of the data set: animal or person. Format: in vivo. The settings on record: for Therapeutic Index LD 50/ED 50 / therapeutic index (in words): mice; for Therapeutic Index LD 50/ED 50: LD 50 (oral)/ED 50 (phenylbenzoquinone test); for therapeutic index (in words): LD 50/ED 50. The procedure:
There is used the phenylbenzoquinone test according to a technique adapted from that of Siegmund (E), Proc. Soc. Exp. Biol. Med. 1957, 95, No. 4, 729-731.
It is attempted to antagonise, by previous administration (30 minutes before) of the test compounds, the painful syndrome provoked in mice (groups of 10 animals) by interperitoneal injection of phenylbenzoquinone and characterised by intermittent contractions of the abdomen, periodic torsions of the trunk and extension of the rear paws. The number of symtoms is counted for 20 minutes after administration of the phenylbenzoquinone to the control and treated groups and the percentage protection relative to the control group calculated.
For the most interesting compounds, studied at several doses chosen in geometric progression of ratio 2, the effective doses 50% (ED 50) which reduce by 50% the effects provoked by phenylbenzoquinone are determined. These ED 50s are sorted according to their limits of confidence calculated for a probability p=0.05 according to the method of Litchfield (J. T.) and Wilcoxon (F. A.), J. Pharmacol. Exp. Ther. 1949, 96, 99-113.
Calculation of the therapeutic index (LD 50/ED 50) enables appreciation of the interest of the compounds.

The nature of data set [3]: Solubility in distilled water. Format: physicochemical.
Setting [4] is: Mus musculus, read-out: Percentage Protection.

Structures can show the parent of a compound that is named as a salt. Where only a bound is given, the exact number is not on record here.

In data set [1], `CC(=O)Oc1ccccc1C(=O)O` [Aspirin, reference compound] came in with a median lethal dose (LD50) at 360 h of 1500 mg/kg. Also, in data set [2] (Mus musculus), the median effective dose (ED50) came out at 60 mg/kg. Besides, in data set [2] (setting [4]), the inhibition in vivo at 9.4 mg/kg worked out at 4%, the inhibition in vivo at 18.75 mg/kg was 20%, the inhibition in vivo at 37.5 mg/kg is 31% and the inhibition in vivo at 75 mg/kg turned out to be 56%. Besides, in data set [2] (setting [4]), the inhibition in vivo at 150 mg/kg was determined as 82% and the inhibition in vivo at 300 mg/kg turned out to be 95%. The “Therapeutic Index LD 50/ED 50” value in data set [2] amounted to 25.

With `CC(Nc1cccc(C(=O)c2ccccc2)c1)C(=O)O` (centres unmarked) [LJ 843, The lysine salt of N-(3-benzoylphenyl)alanine monohydrate], in data set [1], the LD50 at 360 h worked out at 3750 mg/kg. The “solubility in distilled water” value in data set [3] is listed as “very soluble in distilled water”. The compound further displayed a 50% effective dose (ED50) in data set [2] (Mus musculus) of 25 mg/kg. Moreover, in data set [2] (setting [4]), the inhibition in vivo at 11.75 mg/kg turned out to be 30%, the inhibition in vivo at 23.5 mg/kg is 38%, the inhibition in vivo at 47 mg/kg is 66% and the inhibition in vivo at 93.75 mg/kg turned out to be 84%. The inhibition in vivo at 187.5 mg/kg in data set [2] (setting [4]) came out at 91%. In data set [2], the “Therapeutic Index LD 50/ED 50” value stood at 150 and the “therapeutic index (in words)” value is on record as “very favourable therapeutic index”.

For `CC(Nc1cccc(C(=O)c2ccc(Cl)cc2)c1)C(=O)O` (centres unmarked) [LJ 845], the median lethal dose (LD50) at 360 h in data set [1] was determined as 1750 mg/kg. In addition, the inhibition in vivo at 87.5 mg/kg in data set [2] (setting [4]) is 75%.

For `Cc1c(NCC(=O)O)cccc1C(=O)c1ccc(Cl)cc1` [LJ 846, N-[3-(4-Chlorobenzoyl)-2-methyl-phenyl]glycine], the 50% lethal dose (LD50) at 360 h in data set [1] stood at 1600 mg/kg. In data set [2] (Mus musculus), this compound registered an ED50 of 18 mg/kg. Also, in data set [2] (setting [4]), the inhibition in vivo at 5 mg/kg turned out to be 6%, the inhibition in vivo at 10 mg/kg was determined as 40%, the inhibition in vivo at 20 mg/kg came to 48% and the inhibition in vivo at 40 mg/kg amounted to 75%. In data set [2] (setting [4]), the inhibition in vivo at 80 mg/kg came out at 90%. Besides, in data set [2], the “Therapeutic Index LD 50/ED 50” value turned out to be 89 and the “therapeutic index (in words)” value is “very favourable therapeutic index”.

Take `O=C(O)CNc1cccc(C(=O)c2ccccc2)c1` [LJ 850]: the LD50 at 360 h in data set [1] was found to be 675 mg/kg. In addition, in data set [2] (setting [4]), the inhibition in vivo at 33.75 mg/kg was 28%.

`CC(Nc1ccc(C(=O)c2ccccc2)cc1)C(=O)O` (centres unmarked) [LJ 854]: in data set [1], the 50% lethal dose (LD50) at 360 h amounted to 1880 mg/kg. The same compound returned an ED50 in data set [2] (Mus musculus) of 32 mg/kg. In addition, in data set [2] (setting [4]), the inhibition in vivo at 5.8 mg/kg came out at 6%, the inhibition in vivo at 11.75 mg/kg came out at 11%, the inhibition in vivo at 23.5 mg/kg was 25% and the inhibition in vivo at 47 mg/kg worked out at 84%. In addition, in data set [2] (setting [4]), the inhibition in vivo at 93.75 mg/kg is 90%. Further, the “Therapeutic Index LD 50/ED 50” value in data set [2] worked out at 58.

For `CC(Nc1ccccc1C(=O)c1ccccc1)C(=O)O` (centres unmarked) [LJ 855], the LD50 at 360 h in data set [1] is 1000 mg/kg. This compound also returned an ED50 in data set [2] (Mus musculus) of 16 mg/kg. In data set [2] (setting [4]), the inhibition in vivo at 3.1 mg/kg amounted to 10%, the inhibition in vivo at 6.25 mg/kg is 14%, the inhibition in vivo at 12.5 mg/kg came out at 37% and the inhibition in vivo at 25 mg/kg came out at 73%. Moreover, the inhibition in vivo at 50 mg/kg in data set [2] (setting [4]) amounted to 92%. Further, in data set [2], the “Therapeutic Index LD 50/ED 50” value came to 62.

Take `Cc1c(NC(C)C(=O)O)cccc1C(=O)c1ccc(Cl)cc1` (centres unmarked) [LJ 857]: in data set [1], the 50% lethal dose (LD50) at 360 h turned out to be 1250 mg/kg. Also, the inhibition in vivo at 62.5 mg/kg in data set [2] (setting [4]) stood at 64%.

The compound `CC(Nc1ccc(C(=O)c2cccs2)cc1)C(=O)O` (centres unmarked) [LJ 858] displayed a median lethal dose (LD50) at 360 h in data set [1] of 1880 mg/kg. For the same compound, the inhibition in vivo at 93.75 mg/kg in data set [2] (setting [4]) is 78%.

With `CC(Nc1cccc(C(=O)c2cccs2)c1)C(=O)O` (centres unmarked) [LJ 859], the LD50 at 360 h in data set [1] is 2500 mg/kg. For the same compound, the inhibition in vivo at 125 mg/kg in data set [2] (setting [4]) was 77%.

For `Cc1c(NCC(=O)O)cccc1C(=O)c1ccccc1` [LJ 861], in data set [1], the LD50 at 360 h came out at 1300 mg/kg. In addition, the ED50 in data set [2] (Mus musculus) is 65 mg/kg. In data set [2] (setting [4]), the inhibition in vivo at 20 mg/kg stood at 24%, the inhibition in vivo at 40 mg/kg is 36%, the inhibition in vivo at 80 mg/kg was found to be 52% and the inhibition in vivo at 160 mg/kg came out at 90%. Besides, in data set [2] (setting [4]), the inhibition in vivo at 320 mg/kg was 96%. For the same compound, the “Therapeutic Index LD 50/ED 50” value in data set [2] stood at 20.

For the compound `CN(CC(=O)O)c1cccc(C(=O)c2ccccc2)c1` [LJ 862, N-(3-Benzoylphenyl)-N-methyl-glycine], it took a dose of 85 mg/kg to reach the 50% effect level in data set [2] (Mus musculus) (ED50). For the same compound, in data set [2] (setting [4]), the inhibition in vivo at 20 mg/kg came to 6%, the inhibition in vivo at 40 mg/kg was determined as 24%, the inhibition in vivo at 80 mg/kg came out at 49% and the inhibition in vivo at 160 mg/kg worked out at 78%. Moreover, the inhibition in vivo at 320 mg/kg in data set [2] (setting [4]) turned out to be 89%.

Consider `C[C@@H](C(=O)O)N(C(=O)c1ccc(Cl)cc1)c1cccc(C(=O)c2ccccc2)c1` [LJ 863, N-(3-Benzoylphenyl)-N-(4-chlorobenzoyl)-alanine], for which the inhibition in vivo at 320 mg/kg in data set [2] (setting [4]) is 45%.

`O=C(c1ccccc1)c1cccc(NC(C(=O)O)c2ccccc2)c1` (centres unmarked) [LJ 864]: in data set [2] (setting [4]), the inhibition in vivo at 40 mg/kg stood at 7%, the inhibition in vivo at 80 mg/kg came to 22%, the inhibition in vivo at 160 mg/kg stood at 31% and the inhibition in vivo at 320 mg/kg worked out at 59%.

The compound `Cc1ccc(C(=O)c2cccc(NC(C)C(=O)O)c2)cc1` (centres unmarked) [LJ 867] displayed a median lethal dose (LD50) at 360 h in data set [1] of 2620 mg/kg. The compound also gave a 50% effective dose (ED50) in data set [2] (Mus musculus) of 32 mg/kg. For the same compound, in data set [2] (setting [4]), the inhibition in vivo at 8.2 mg/kg was determined as 6%, the inhibition in vivo at 16.4 mg/kg is 32%, the inhibition in vivo at 32.75 mg/kg was 52% and the inhibition in vivo at 65.5 mg/kg stood at 70%. Besides, in data set [2] (setting [4]), the inhibition in vivo at 131 mg/kg worked out at 92% and the inhibition in vivo at 262 mg/kg was determined as 97%. In addition, in data set [2], the “Therapeutic Index LD 50/ED 50” value is recorded as 82 and the “therapeutic index (in words)” value is “very favourable therapeutic index”.

On to `CC(Nc1ccc(Cl)c(C(=O)c2ccccc2)c1)C(=O)O` (centres unmarked) [LJ 868], for which, in data set [1], the LD50 at 360 h amounted to 1800 mg/kg. Further, in data set [2] (Mus musculus), the ED50 was above 180 mg/kg. For the same compound, the inhibition in vivo at 180 mg/kg in data set [2] (setting [4]) was determined as 32%. Also, the “Therapeutic Index LD 50/ED 50” value in data set [2] is below 10.

Regarding `Cc1ccc(C(=O)c2ccccc2)cc1NC(C)C(=O)O` (centres unmarked) [LJ 869], in data set [1], the median lethal dose (LD50) at 360 h came out at 1300 mg/kg. The compound also had an ED50 in data set [2] (Mus musculus) of 28 mg/kg. Besides, in data set [2] (setting [4]), the inhibition in vivo at 8.1 mg/kg was 12%, the inhibition in vivo at 16.25 mg/kg was 36%, the inhibition in vivo at 32.5 mg/kg stood at 51% and the inhibition in vivo at 65 mg/kg was 82%. Also, the inhibition in vivo at 130 mg/kg in data set [2] (setting [4]) is 96%. In addition, in data set [2], the “Therapeutic Index LD 50/ED 50” value is on record as 46.

For `Cc1ccc(C(=O)c2ccccc2)cc1NCC(=O)O` [LJ 871], the ED50 in data set [2] (Mus musculus) came out at 120 mg/kg. Moreover, in data set [2] (setting [4]), the inhibition in vivo at 20 mg/kg was found to be 3%, the inhibition in vivo at 40 mg/kg was found to be 22%, the inhibition in vivo at 80 mg/kg worked out at 34% and the inhibition in vivo at 160 mg/kg is 59%. The inhibition in vivo at 320 mg/kg in data set [2] (setting [4]) was determined as 60%.

For `C[C@H](Nc1cccc(C(=O)c2ccccc2)c1)C(=O)O` [LJ 874, N-(3-Benzoylphenyl)-alanine], in data set [1], the LD50 at 360 h turned out to be 2500 mg/kg. For the same compound, the median effective dose (ED50) in data set [2] (Mus musculus) came to 35 mg/kg. Moreover, in data set [2] (setting [4]), the inhibition in vivo at 7.5 mg/kg came out at 3%, the inhibition in vivo at 15 mg/kg was 20%, the inhibition in vivo at 30 mg/kg came to 48% and the inhibition in vivo at 60 mg/kg was found to be 61%. Further, the inhibition in vivo at 120 mg/kg in data set [2] (setting [4]) was 92%. In data set [2], the “Therapeutic Index LD 50/ED 50” value was determined as 71 and the “therapeutic index (in words)” value is “very favourable therapeutic index”.

The LD50 is the dose expected to kill half of the subjects tested. High values mean a less toxic substance, low ones a more toxic substance. Broadly, the ED50 is the dose at which the effect has come halfway, by size or by number of responders. A higher ED50 goes with a need for a large dose.
